Assays:
Assay type in all cases: in vivo
[1] = tested on: barnyardgrass (Echinochloa crus-galli); assay: Test A preemergence soil spray, visual injury rating 0-100; settings: 10 days, 0 = no effect, 100 = complete control
Procedure, shortened: (§1)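 Plants were grown in a loam soil-sand blend and treated with test chemical in a non-phytotoxic solvent mixture containing surfactant, either sprayed on soil preemergence or applied postemergence to 2-10 cm plants. After 10 days in a greenhouse, injury was scored visually against untreated controls, 0 meaning no effect and 100 complete control.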

[2] = tested on: blackgrass (Alopecurus myosuroides); assay: as above; settings: 10 days, 0 = no effect, 100 = complete control
Procedure, shortened: as §1

corn (Zea mays) [3] = assay: as above; settings: 10 days, 0 = no effect, 100 = complete control
Procedure, shortened: as §1

[4] = tested on: green foxtail (Setaria viridis); assay: as above; settings: 10 days, 0 = no effect, 100 = complete control
Procedure, shortened: as §1

kochia (Bassia scoparia) [5] = assay: as above; settings: 10 days, 0 = no effect, 100 = complete control
Procedure, shortened: as §1

[6] = tested on: oat, wild (wild oat, Avena fatua); assay: as above; settings: 10 days, 0 = no effect, 100 = complete control
Procedure, shortened: as §1

[7] = tested on: ragweed (common ragweed, Ambrosia artemisiifolia); assay: as above; settings: 10 days, 0 = no effect, 100 = complete control
Procedure, shortened: as §1

[8] = tested on: ryegrass, Italian (italian ryegrass, Lolium multiflorum); assay: as above; settings: 10 days, 0 = no effect, 100 = complete control
Procedure, shortened: as §1

soybean (Glycine max) [9] = assay: as above; settings: 10 days, 0 = no effect, 100 = complete control
Procedure, shortened: as §1

[10] = tested on: wheat (Triticum aestivum); assay: as above; settings: 500 g ai/ha, 10 days, 0 = no effect, 100 = complete control
Procedure, shortened: as §1

[11] = tested on: barnyardgrass (Echinochloa crus-galli); assay: Test A postemergence application, visual injury rating 0-100; settings: Postemergence, 10 days, 0 is no effect, 100 is complete control
Procedure, shortened: as §1

[12] = tested on: blackgrass (Alopecurus myosuroides); assay: as above; settings: Postemergence, 10 days, 0 is no effect, 100 is complete control
Procedure, shortened: as §1

corn (Zea mays) [13] = assay: as above; settings: Postemergence, 10 days, 0 is no effect, 100 is complete control
Procedure, shortened: as §1

[14] = tested on: galium (catchweed bedstraw, Galium aparine); assay: as above; settings: Postemergence, 10 days, 0 is no effect, 100 is complete control
Procedure, shortened: as §1

[15] = tested on: green foxtail (Setaria viridis); assay: as above; settings: Postemergence, 10 days, 0 is no effect, 100 is complete control
Procedure, shortened: as §1

[16] = tested on: horseweed (Erigeron canadensis); assay: as above; settings: Postemergence, 10 days, 0 is no effect, 100 is complete control
Procedure, shortened: as §1

kochia (Bassia scoparia) [17] = assay: as above; settings: Postemergence, 10 days, 0 is no effect, 100 is complete control
Procedure, shortened: as §1

[18] = tested on: oat, wild (wild oat, Avena fatua); assay: as above; settings: Postemergence, 10 days, 0 is no effect, 100 is complete control
Procedure, shortened: as §1

[19] = tested on: palmer (palmer amaranth, palmer pigweed, Amaranthus palmeri); assay: as above; settings: Postemergence, 10 days, 0 is no effect, 100 is complete control
Procedure, shortened: as §1

[20] = tested on: ragweed (common ragweed, Ambrosia artemisiifolia); assay: as above; settings: Postemergence, 10 days, 0 is no effect, 100 is complete control
Procedure, shortened: as §1

[21] = tested on: ryegrass, Italian (italian ryegrass, Lolium multiflorum); assay: as above; settings: Postemergence, 10 days, 0 is no effect, 100 is complete control
Procedure, shortened: as §1

soybean (Glycine max) [22] = assay: as above; settings: Postemergence, 10 days, 0 is no effect, 100 is complete control
Procedure, shortened: as §1

[23] = tested on: wheat (Triticum aestivum); assay: as above; settings: Postemergence, 10 days, 0 is no effect, 100 is complete control
Procedure, shortened: as §1

[24] = tested on: barnyardgrass (Echinochloa crusgalli); assay: Test B flooded paddy test, visual plant response rating 0-100; settings: 250 g ai/ha, Flood, applied to paddy water, evaluated after 13 days
Procedure, shortened: (§2)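 Each species was raised to two leaves before flooding to a 3 cm depth and dosing the water with compound. Injury was assessed by eye after 13 days under greenhouse conditions.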

[25] = tested on: ducksalad (Heteranthera limosa); assay: as above; settings: 250 g ai/ha, Flood, applied to paddy water, evaluated after 13 days
Procedure, shortened: as §2

rice (Oryza sativa) = assay: as above; settings: 250 g ai/ha, Flood, applied to paddy water, evaluated after 13 days
Procedure, shortened: as §2

[26] = tested on: sedge, umbrella (small-flower umbrella sedge, Cyperus difformis); assay: as above; settings: 250 g ai/ha, Flood, applied to paddy water, evaluated after 13 days
Procedure, shortened: as §2

In the case of `COC(=O)[C@H]1C[C@@H](NC(=O)C2(C)CN(c3cc(F)cc(F)c3)C(=O)O2)[C@H]2C[C@H]21` (stereo partly drawn) [Compound 176, methyl (1R,2S,4R,5S)-4-[[3-(3,5-difluorophenyl)-5-methyl-2-oxo-oxazolidine-5-carbonyl]amino]bicyclo[3.1.0]hexane-2-carboxylate], the “Barnyardgrass plant response rating (0 to 100 scale)” value (“Barnyardgrass plant response rating” below) ([1]; 125 g ai/ha) is reported as 100, the “Barnyardgrass plant response rating” value ([1]; 500 g ai/ha) is reported as 100 and the “Blackgrass plant response rating (0 to 100 scale)” value (shortened to “Blackgrass plant response rating”) ([2]; 125 g ai/ha) is reported as 90. The “Blackgrass plant response rating” value ([2]; 500 g ai/ha) was 100, the “Corn plant response rating (0 to 100 scale)” value (from here on “Corn plant response rating”) (corn (Zea mays) [3]; 125 g ai/ha) was 70 and the “Corn plant response rating” value (corn (Zea mays) [3]; 500 g ai/ha) was 100. For the same compound, the “Foxtail, Green plant response rating (0 to 100 scale)” value (shortened to “Foxtail, Green plant response rating”) ([4]; 125 g ai/ha) was 90, the “Foxtail, Green plant response rating” value ([4]; 500 g ai/ha) was 100 and the “Kochia plant response rating (0 to 100 scale)” value (from here on “Kochia plant response rating”) (kochia (Bassia scoparia) [5]; 125 g ai/ha) was 90. For the same compound, the “Kochia plant response rating” value (kochia (Bassia scoparia) [5]; 500 g ai/ha) was 100, the “Oat, Wild plant response rating (0 to 100 scale)” value (“Oat, Wild plant response rating” for short) ([6]; 125 g ai/ha) was 90 and the “Oat, Wild plant response rating” value ([6]; 500 g ai/ha) was 90. The “Ragweed plant response rating (0 to 100 scale)” value (“Ragweed plant response rating” below) ([7]; 125 g ai/ha) was 0, the “Ragweed plant response rating” value ([7]; 500 g ai/ha) was 0 and the “Ryegrass, Italian plant response rating (0 to 100 scale)” value (“Ryegrass, Italian plant response rating” for short) ([8]; 125 g ai/ha) was 100. The “Ryegrass, Italian plant response rating” value ([8]; 500 g ai/ha) was 100, the “Soybean plant response rating (0 to 100 scale)” value (“Soybean plant response rating” below) (soybean (Glycine max) [9]; 125 g ai/ha) was 70 and the “Soybean plant response rating” value (soybean (Glycine max) [9]; 500 g ai/ha) was 80. For the same compound, the “Wheat plant response rating (0 to 100 scale)” value (“Wheat plant response rating” for short) [10] was 100, the “Barnyardgrass plant response rating” value ([11]; 125 g ai/ha) was 100 and the “Barnyardgrass plant response rating” value ([11]; 500 g ai/ha) was 100. For the same compound, the “Blackgrass plant response rating” value ([12]; 125 g ai/ha) was 90, the “Blackgrass plant response rating” value ([12]; 500 g ai/ha) was 90 and the “Corn plant response rating” value (corn (Zea mays) [13]; 125 g ai/ha) was 100. The “Corn plant response rating” value (corn (Zea mays) [13]; 500 g ai/ha) was 100, the “Galium plant response rating (0 to 100 scale)” value ([14]; 125 g ai/ha) was 90 and the “Galium plant response rating (0 to 100 scale)” value ([14]; 500 g ai/ha) was 100. The “Foxtail, Green plant response rating” value ([15]; 125 g ai/ha) was 90, the “Foxtail, Green plant response rating” value ([15]; 500 g ai/ha) was 90 and the “Horseweed plant response rating (0 to 100 scale)” value ([16]; 125 g ai/ha) was 0. For the same compound, the “Horseweed plant response rating (0 to 100 scale)” value ([16]; 500 g ai/ha) was 30, the “Kochia plant response rating” value (kochia (Bassia scoparia) [17]; 125 g ai/ha) was 90 and the “Kochia plant response rating” value (kochia (Bassia scoparia) [17]; 500 g ai/ha) was 90. The “Oat, Wild plant response rating” value ([18]; 125 g ai/ha) was 90, the “Oat, Wild plant response rating” value ([18]; 500 g ai/ha) was 90 and the “Amaranth, Palmer / Pigweed, Palmer plant response rating (0 to 100 scale)” value ([19]; 125 g ai/ha) was 80. For the same compound, the “Amaranth, Palmer / Pigweed, Palmer plant response rating (0 to 100 scale)” value ([19]; 500 g ai/ha) was 90, the “Ragweed plant response rating” value ([20]; 125 g ai/ha) was 70 and the “Ragweed plant response rating” value ([20]; 500 g ai/ha) was 80. For the same compound, the “Ryegrass, Italian plant response rating” value ([21]; 125 g ai/ha) was 100, the “Ryegrass, Italian plant response rating” value ([21]; 500 g ai/ha) was 100 and the “Soybean plant response rating” value (soybean (Glycine max) [22]; 125 g ai/ha) was 70. For the same compound, the “Soybean plant response rating” value (soybean (Glycine max) [22]; 500 g ai/ha) was 70, the “Wheat plant response rating” value ([23]; 125 g ai/ha) was 90 and the “Wheat plant response rating” value ([23]; 500 g ai/ha) was 90. The “Plant response rating, Barnyardgrass (0 to 100 scale, 0 is no effect and 100 is complete control)” value [24] was 55, the “Plant response rating, Ducksalad (0 to 100 scale, 0 is no effect and 100 is complete control)” value [25] was 65 and the “Plant response rating, Rice (0 to 100 scale, 0 is no effect and 100 is complete control)” value (rice (Oryza sativa)) was 35. The “Plant response rating, Sedge, Umbrella (0 to 100 scale, 0 is no effect and 100 is complete control)” value [26] was 45.
